Like-named read-outs stand apart in the source and are kept apart here.
How the values were obtained:
[1] = test system: musculocutaneous flap; assay: musculocutaneous flap skin survival after DNP; assay type: in vivo; conditions: after induction of heat shock proteins by DNP (FIG. 23)
Text: This method of DNP induced preconditioning could be used to decrease intimal thickening and restenosis after angioplasty, improve ischemia/reperfusion injury in organ and tissue transplantation, and improve surgical outcome of procedures that require temporary or prolonged occlusion of arterial blood flow.

[2] = test system: Kaposi's sarcoma and nontumorous oral mucosa tissues; assay: microcalorimetric heat output of biopsy specimens; design: species or system human; conditions: biopsy specimens in 30 uM DNP
Text: Laboratory studies: EKG, serum electrolytes, renal and liver function tests were normal. Hematocrit was 35.5%, WBC was 9,900 with 81% neutrophils, 4 bands, 11 lymphocytes and 4 monocytes. Platelets were 314,000/mm^3. Viral load was 400,000 copies/ml (Amplicor HIV Monitor test, Roche). A CD4^+ T cell count was quantified by flow cytometry at 250/mm^3. They were antibody positive for hepatitis C. […] Karnofsky score was greater than 70. Normal and tumor tissue biopsies, 3 to 6 mm in diameter, from the oral cavity and anus were obtained. The tissues were equally divided, weighed and placed in 4° C. Ringers lactate solution. Histologically confirmed normal and KS tissues were then subjected to microcalorimetric measurements in a thermal activity monitor (ThermoMetric, Jarfalla, Sweden). Recorded heat output (μW/min) was 8.2-8.5 times greater for the KS sarcoma lesions than nontumorous oral mucosa tissues. Repeat measurements with biopsies specimens in 30 uM DNP increased heat production in tumorous tissues 20.5 times more than nontumorous specimens.

[3] = assay type: in vivo, human
Method: Placement of physiologic monitoring sensors, intravenous fluids, supplemental oxygen (4 l/min) and optional oral diazepam sedation (5-10 mg) is initiated prior to treatment. Patients receive 0.85 to 1.0 liter of intravenous (IV) 5% dextrose in 0.25 normal saline per hour alternated with 5% dextrose in 0.5 normal saline plus 7.5 to 10 meq of KCl per liter to insure a urinary output of no less than 1 ml/kg/hr. […] Two hours after treatment and 48 hours post-treatment, serum chemistries and hematologic profiles are repeated. A typical patient flow chart is depicted in FIG. 14.
Pretreatment protocol: the patient was given 10 mg diazepam by mouth and dressed into a modified wet suit. The wet suit was cut lengthwise at the arms and legs. Velcro strappings were attached at the cuttings for closure, rapid removal or exposure of the limb(s). After placement of monitoring sensors, they were started on IV fluids of 5% dextrose, 0.5 normal saline with 7 meq K^+, infused at an initial rate of 12 cc/kg/hr. Evaporative heat loss from the head was minimized by a plastic shower cap and towels. A 401AC temperature probe (YSI Incorporated, Yellow Springs, Ohio) was inserted 11 cm. into the rectum. […] A TEEM 100 Metabolic Analysis System (AeroSport Inc., Ann Arbor, Mich.), with a modified face mask and oxygen delivery system (38-40% 02 saturation) for patient comfort and increased accuracy, was attached to the patient. Oxygen consumption (V02), carbon dioxide production (VC02), expired air volume (VE), heart rate (HR), and Kcal of heat produced were measured in 20 second intervals and extrapolated to minute or hourly rates.
Pretreatment protocol: all medications were stopped 2 weeks prior to treatment. The patient refused taking diazepam, placement of a Foley catheter and oxygen face mask. They dressed themself into a dry cold water immersion suit (Stearns, ISS-590I, Universal Adult) designed to prevent heat loss and modified for easy placement of physiologic monitors. Equipment for measurement of heart rate, temperature, carbon dioxide production and Kcal of heat produced were conducted as outlined in Example 1. An oral breathing tube was used to measure V02 from room air. Urine output was measured when the patient voluntarily urinated through a “Texas” catheter (superficial condom tightly fitted around the head of the penis with tubing connected to urine collection bag). The patient was informed that hyperthermia would be administered as tolerated by their stamina and monitored clinical parameters, not to exceed 5 hours, on a daily or every other day basis, for a total of 5 sessions.
Pretreatment protocol: the evening prior treatment the patient was instructed not to eat and dress in cotton undergarments. Approximately 4 hours prior to treatment 2 mg alprazolam was administered by mouth. The patient dressed themself into a dry cold water immersion suit (Stearns, previously described) with headgear. Monitoring sensors, including EKG display, IV fluids and Foley catheter were attached and the suit was zipped closed. The patient opted for oxygen supplementation. The modified face mask was connected to the TEEM 100 metabolic Analysis System for V02 measurements. Data was recorded as previously described.
Pretreatment protocol: the patient was transfused with three units of packed red blood cells. A Foley catheter was inserted on each day of treatment. They were covered in a water soaked blanket containing a polyethylene lining. A shower cap with towels was used to prevent heat loss from the head. Intravenous lines were placed into both arms with 19 gauge intracaths. EKG, heart rate, rectal thermistor, and V02 monitors were attached. Oxygen supplemented facemask and equipment was attached and data monitored as previously described under Example 1.
Pretreatment protocol: the patient was transfused with 2 units of packed red blood cells 48 hours prior to undergoing treatment. Intravenous fluids (Lactated Ringer's solution) were administered at a rate of 100 cc/hour. […]

[4] = test system: tumors and normal fibroblasts; conditions: many tumors and normal fibroblasts treated with DNP; cited from earlier work
[5] = man and animals accidentally intoxicated; cited from earlier work
[6] = Example 3, peak after second dose of 2.0 mg/kg DNP
[7] = Example 3, stable plateau after additional 1.0 mg/kg DNP
[8] = Example 4, DNP 1 mg/kg + 3 x 0.5 mg/kg after mephenteramine

With `O=[N+]([O-])c1ccc(O)c([N+](=O)[O-])c1` [DNP, 2,4-dinitrophenol] the “musculocutaneous flap skin survival” value [1] was “improved musculocutaneous flap skin survival”, the “heat production in tumorous tissues versus nontumorous specimens” value [2] was 20.5 times and the rectal body temperature ([3]; Example 1, DNP 1 + 3 mg/kg IV plus glucagon, maintained about 1 hour) was 40 °C. For the same compound, the post-treatment toxicity ([3]; Example 1, DNP with glucagon) was “No immediate or delayed post-treatment toxicity”, the V02 above baseline ([3]; Example 1, stabilized after initial 1 mg/kg DNP IV) was 40% and the V02 ([3]; Example 2, 15 minutes after initial 2 mg/kg DNP, baseline 300 cc/min) was 340-380 cc/min. For the same compound, the V02 ([3]; Example 2, after additional 2 mg/kg DNP infusion) was 610-630 cc/min, the blood pressure ([3]; Example 2, gradual fall noted at 90 minutes) was 100/60 and the repeat blood work ([3]; Example 2, on days of treatment) was “no significant hematologic, electrolyte, liver or kidney changes from baseline”. For the same compound, the “tolerability of the procedure” value ([3]; Example 2, period of 7 hours) was “without any untoward effects”, the body core temperature ([3]; Example 2, within 60 minutes, DNP 2 + 2 mg/kg) was 39.4 °C and the “tolerability of the procedure” value ([3]; Example 3) was “experienced no problems during the procedure but was noticeably fatigued by hour 3”. It also gave an oral temperature ([3]; Example 3, 6.5 to 7 hours after treatment, with chills and malaise) of 38.7 degrees centigrade, a V02 per kg ([3]; Example 3, after 1 mg/kg DNP, baseline 3.7) of 5.3 cc/kg/min and a V02 ([3]; Example 3, after 1 mg/kg DNP, baseline 220 cc/min) of 250 cc/min. It also gave a V02 [3, 6] of 400 cc/min, a V02 per kg [3, 6] of 8.8 cc 02/kg/min and a V02 [3, 7] of 600 cc/min. The V02 per kg [3, 7] was 10.8 cc/kg/min, the V02 [3, 8] was 780-820 cc/min and the “core temperature, maximum” value [3, 8] was 41.4 °C. For the same compound, the plateau temperature ([3]; Example 4, maintained 2 hours and 30 minutes) was 41.5 °C, the “VO2 uptake above baseline” value ([3]; Example 7, 300 mg capsule of DNP orally, three hours before, immediately prior to emission scan) was 40% and the VO2 above baseline ([3]; Example 8, DNP 1 + 2 mg/kg IV) was 50%. For the same compound, the “blood pressure and cardiac rates” value ([3]; Example 9) was “remained within normal limits”, the VO2 ([3]; Example 9, 15 minutes after additional 1 mg/kg DNP) was 420 cc/minute and the VO2 ([3]; Example 9, 20 minutes after 2 mg/kg DNP IV, baseline 250 cc/minute) was 340-360 cc/minute. For the same compound, the VO2 ([3]; Example 9, 20 minutes after additional 1 mg/kg DNP at hour 3) was 450-500 cc/minute, the “tolerability of the procedure” value ([3]; Example 9, 6 hours) was “without any adverse effects” and the “rectal probe temperature increase over baseline, maximum” value ([3]; Example 9, DNP with methylene blue) was 1.3 °C. For the same compound, the general toxicity ([3]; Example 9, at any time during treatment) was “no evidence of general toxicity”, the VO2 ([3]; Example 9, declined by hour 3) was 360-380 cc/minute and the fatigue ([3]; Example 10) was “notably fatigued at hour 5”. The sweating ([3]; Example 10) was “sweat profusely”, the VO2 ([3]; Example 10, 20 minutes after 1 mg/kg DNP, baseline 160 cc/min, interferon-alpha 6 hours before) was “approximately 210 cc/min” and the VO2 ([3]; Example 10, 20 minutes after additional 2 mg/kg DNP) was 420 cc/min. The VO2 ([3]; Example 10, 20 minutes after additional 2.0 mg/kg DNP) was 360 cc/min, the VO2 ([3]; Example 10, declined two hours after last dose) was 280 cc/min and the “rectal temperature above normal baseline” value ([3]; Example 10, no efforts to prevent body heat loss) was ≤ 1.3 °C. The VO2 ([3]; Example 10, peak 20 minutes after second dose of 1 mg/kg DNP) was 250 cc/min, the “increase in heat production” value [4] was 83% and the “increase in oxygen consumption” value [4] was 36%. For the same compound, the hyperthermia [5] was “up to 49 °C”.

From patent US7635722B1, “Chemical induced intracellular hyperthermia” (priority 1998, dated 2009)
